Results from PMC9059125 (Journal of Medicinal Chemistry, 2022).
Read-outs that look alike come from different tables or passages of the source. *1 amine or outer side, *2 acyl side, *3 side chain or, on linkers, in order; H or OH if unused. Where a SMILES comes first, the peptide text is derived from it. Bridges are numbered along the chain shown (N, C = ends). X1 = O=C(CCC[*:2])[*:1]

Columns and labels:
[1] = simulated gi fluid, pH 6.8
[2] = target: T1, human oxytocin receptor (OTR) (Homo sapiens, UniProt P30559); assay: NIMH PDSP FLIPR-TETRA Ca2+-mobilization assay; assay type: cell-based
T1 construct: NIMH PDSP (data provider)
T1 sequence (P30559 1-389): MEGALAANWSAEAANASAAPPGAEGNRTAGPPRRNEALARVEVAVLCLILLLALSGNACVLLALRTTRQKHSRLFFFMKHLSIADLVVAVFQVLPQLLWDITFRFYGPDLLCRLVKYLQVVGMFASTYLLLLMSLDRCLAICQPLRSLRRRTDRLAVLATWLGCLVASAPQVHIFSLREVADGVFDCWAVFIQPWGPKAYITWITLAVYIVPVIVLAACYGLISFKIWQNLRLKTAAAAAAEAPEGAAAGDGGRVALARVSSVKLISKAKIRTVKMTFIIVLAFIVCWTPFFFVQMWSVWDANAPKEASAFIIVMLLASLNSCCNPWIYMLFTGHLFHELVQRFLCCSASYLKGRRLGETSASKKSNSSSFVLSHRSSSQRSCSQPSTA

[3] = target: T1, human oxytocin receptor (OTR); settings: cited from earlier work
[4] = simulated gi fluid, pH 1.2
[5] = simulated gi fluid; cited from earlier work
hOTR = target: T2, hOTR (Homo sapiens, UniProt P30559); assay: cell-based
T2 construct: expressed in transfected cells; host or cells: COS-1 cells (ATCC), transient transfection with FuGENE HD
T2 sequence (P30559 1-389): T1 sequence (P30559 1-389)

in vitro = settings: pig, simulated gi fluid, pH 6.8

Compound	t1/2 SIF ([1]; pig)	t1/2 SGF [4]	t1/2 SIF [1]	other results
CC[C@H](C)[C@@H]1NC(=O)[C@H](Cc2ccc(O)cc2)NC(=O)[C@@H](N)CSSC[C@@H](C(=O)N2CCC[C@H]2C(=O)N[C@@](C)(CC(C)C)C(=O)NCC(N)=O)NC(=O)[C@H](CC(N)=O)NC(=O)[C@H](CCC(N)=O)NC1=O [(Cα-Me)L^8OT]	4.4 ± 0.3 h	–	–	EC50 [2]: 3.8 ± 2.7 nM; Emax ± SEM OTR [2]: 105 ± 11; bioactivity at OTR compared to native OT [2]: equipotent to native OT
CC[C@H](C)[C@@H]1NC(=O)[C@H](Cc2ccc(O)cc2)NC(=O)[C@@H](N)CSSC[C@@H](C(=O)N2CCC[C@H]2C(=O)N[C@@H](CC(C)C)C(=O)N(C)CC(N)=O)NC(=O)[C@H](CC(N)=O)NC(=O)[C@H](CCC(N)=O)NC1=O [(Nα-Me)G^9OT]	2.9 ± 0.1 h	–	–	reduced potency compared to native OT [3]: ~10 fold
CC[C@H](C)[C@@H]1NC(=O)[C@H](Cc2ccc(O)cc2)NC(=O)[C@@H](N)CSSC[C@@H](C(=O)N2CCC[C@H]2C(=O)N[C@H](CC(=O)NCC(N)=O)CC(C)C)NC(=O)[C@H](CC(N)=O)NC(=O)[C@H](CCC(N)=O)NC1=O [(β^3-homo)L^8OT]	3.6 ± 0.1 h	–	–	–
CC[C@H](C)[C@@H]1NC(=O)[C@H](Cc2ccc(OC)cc2)NC(=O)CCCSC[C@@H](C(=O)N2CCC[C@H]2C(=O)N[C@@H](CC(C)C)C(=O)NCC(N)=O)NC(=O)[C@H](CC(N)=O)NC(=O)[C@H](CCC(N)=O)NC1=O [Carbetocin, reference compound] (Y(Me)IQNCPLG-NH2; linker N-5 via X1)	0.217 ± 0.017 h	>24 h	–	–
NC(=O)CC[C@@H]1NC(=O)[C@H](Cc2ccccc2)NC(=O)[C@H](Cc2ccc(O)cc2)NC(=O)CCSSC[C@@H](C(=O)N2CCC[C@H]2C(=O)N[C@H](CCCN=C(N)N)C(=O)NCC(N)=O)NC(=O)[C@H](CC(N)=O)NC1=O [Desmopressin]	–	–	–	reported t1/2 in SIF [5]: 0.5 h
CC(C)C[C@@H]1NC(=O)[C@H](CCC(=O)O)NC(=O)[C@@H](NC(=O)[C@H](CCC(=O)O)NC(=O)[C@H](CC(=O)O)NC(=O)[C@H](N)CC(N)=O)CSSC[C@@H]2NC(=O)[C@H](C)NC(=O)[C@H](C(C)C)NC(=O)[C@H](CC(N)=O)NC(=O)[C@H](C(C)C)NC(=O)[C@H](CSSC[C@@H](C(=O)N[C@H](CC(C)C)C(=O)O)NC(=O)CNC(=O)[C@H]([C@@H](C)O)NC2=O)NC1=O [Dolcanatide, reference compound]	–	>24 h	>24 h	–
CC[C@H](C)[C@@H]1NC(=O)[C@H](Cc2ccc(O)cc2)NC(=O)[C@@H](N)CSSC[C@@H](C(=O)N2CCC[C@H]2C(=O)N[C@@H](CC(C)C)C(=O)NNC(N)=O)NC(=O)[C@H](CC(N)=O)NC(=O)[C@H](CCC(N)=O)NC1=O [G^9(aza)OT]	–	–	<0.05 h	EC50 [2]: 2.24 ± 0.63 nM; Emax ± SEM OTR [2]: 111 ± 6
CC[C@H](C)[C@@H]1NC(=O)[C@H](Cc2ccc(O)cc2)NC(=O)[C@@H]2CSSC[C@@H]3NC(=O)[C@H](C(C)C)NC(=O)[C@@H]4CCCN4C(=O)[C@H](Cc4c[nH]c5ccccc45)NC(=O)[C@H](CO)NC(=O)[C@@H]4CSSC[C@H](NC(=O)[C@H]([C@@H](C)O)NC(=O)[C@H](CCC(=O)O)NC(=O)CNC(=O)[C@H](CSSC[C@H](NC(=O)[C@H](CC(N)=O)NC(=O)[C@H](CCC(N)=O)NC1=O)C(=O)N[C@@H]([C@@H](C)O)C(=O)N4)NC(=O)[C@H](C(C)C)NC(=O)[C@@H]1CCCN1C(=O)[C@H](CC(C)C)NC(=O)CNC(=O)[C@H](CC(N)=O)NC(=O)[C@H](CCCNC(=N)N)NC(=O)[C@H]([C@@H](C)O)NC3=O)C(=O)N[C@@H](C(C)C)C(=O)NCC(=O)NCC(=O)N[C@@H]([C@@H](C)O)C(=O)N2 [KB1(OT^[2-5])]	–	–	>24 h	EC50 (hOTR): > 10000 nM
CC[C@H](C)[C@@H]1NC(=O)[C@H](Cc2ccc(O)cc2)NC(=O)[C@@H]2CSSC[C@@H]3NC(=O)[C@H](C(C)C)NC(=O)[C@@H]4CCCN4C(=O)[C@H](Cc4c[nH]c5ccccc45)NC(=O)[C@H](CO)NC(=O)[C@@H]4CSSC[C@H](NC(=O)[C@H]([C@@H](C)O)NC(=O)[C@H](CCC(=O)O)NC(=O)CNC(=O)[C@H](CSSC[C@H](NC(=O)[C@H](CC(N)=O)NC(=O)[C@H]([C@@H](C)O)NC1=O)C(=O)N[C@@H]([C@@H](C)O)C(=O)N4)NC(=O)[C@H](C(C)C)NC(=O)[C@@H]1CCCN1C(=O)[C@H](CC(C)C)NC(=O)CNC(=O)[C@H](CC(N)=O)NC(=O)[C@H](CCCNC(=N)N)NC(=O)[C@H]([C@@H](C)O)NC3=O)C(=O)N[C@@H](C(C)C)C(=O)NCC(=O)NCC(=O)N[C@@H]([C@@H](C)O)C(=O)N2 [KB1(T^4G^7OT^[2-5])]	–	–	>24 h	EC50 (hOTR): > 10000 nM
CC[C@H](C)[C@@H]1NC(=O)[C@H](Cc2ccc(O)cc2)NC(=O)[C@@H]2CSSC[C@@H]3NC(=O)[C@H]([C@@H](C)CC)NC(=O)[C@@H]4CCCN4C(=O)[C@H](Cc4c[nH]c5ccccc45)NC(=O)[C@H](CO)NC(=O)[C@@H]4CSSC[C@H](NC(=O)[C@H]([C@@H](C)O)NC(=O)[C@H](CCC(=O)O)NC(=O)CNC(=O)[C@H](CSSC[C@H](NC(=O)[C@H](CC(N)=O)NC(=O)[C@H]([C@@H](C)O)NC1=O)C(=O)N[C@@H]([C@@H](C)O)C(=O)N4)NC(=O)[C@H](C(C)C)NC(=O)[C@@H]1CCCN1C(=O)[C@H](CC(C)C)NC(=O)CNC(=O)[C@H](CC(N)=O)NC(=O)[C@H](CCCNC(=N)N)NC(=O)[C@H](CCCCN)NC3=O)C(=O)N[C@@H]([C@@H](C)O)C(=O)N[C@@H](CC(C)C)C(=O)NCC(=O)N[C@@H]([C@@H](C)O)C(=O)N2 [KB7(T^4G^7OT^[2-5])]	–	–	>24 h	EC50 (hOTR): > 10000 nM
CC(C)C[C@@H]1NC(=O)CNC(=O)[C@H](CC(N)=O)NC(=O)[C@H](CCCNC(=N)N)NC(=O)[C@H]([C@@H](C)O)NC(=O)[C@@H]2CSSC[C@@H]3NC(=O)[C@H]([C@@H](C)O)NC(=O)CNC(=O)CNC(=O)[C@H](C(C)C)NC(=O)[C@@H]4CSSC[C@H](NC(=O)[C@H]([C@@H](C)O)NC(=O)[C@H](CSSC[C@H](NC(=O)[C@H](C(C)C)NC(=O)[C@@H]5CCCN5C1=O)C(=O)NCC(=O)N[C@@H](CCC(=O)O)C(=O)N[C@@H]([C@@H](C)O)C(=O)N4)NC(=O)CNC(=O)[C@@H]1CCCN1C(=O)[C@H]([C@@H](C)O)NC(=O)[C@H](CC(N)=O)NC3=O)C(=O)N[C@@H](CO)C(=O)N[C@@H](Cc1c[nH]c3ccccc13)C(=O)N1CCC[C@H]1C(=O)N[C@@H](C(C)C)C(=O)N2 [Kalata B1, reference compound]	–	>24 h	>24 h	–
C[C@@H]1NC(=O)[C@@H]2CCCN2C(=O)[C@H](CC(N)=O)NC(=O)[C@@H]2CSSC[C@H](N)C(=O)N[C@H]3CSSC[C@H](NC1=O)C(=O)N[C@@H]([C@@H](C)O)C(=O)NCC(=O)N[C@H](C(=O)N[C@@H](Cc1ccc(O)cc1)C(=O)O)CSSC[C@H](NC(=O)[C@H](Cc1ccc(O)cc1)NC(=O)[C@H](CCC(=O)O)NC3=O)C(=O)N2 [Linaclotide] (HELM PEPTIDE1{C.C.E.Y.C.C.N.P.A.C.T.G.C.Y}$PEPTIDE1,PEPTIDE1,1:R3-6:R3|PEPTIDE1,PEPTIDE1,2:R3-10:R3|PEPTIDE1,PEPTIDE1,5:R3-13:R3$$$V2.0)	0.9 ± 0.05 h	>24 h	–	reported t1/2 in SIF [5]: 0.267 h
CC[C@H](C)[C@@H]1NC(=O)[C@H](Cc2ccc(O)cc2)NC(=O)[C@@H](N)CSSC[C@@H](C(=O)N2CCC[C@H]2C(=O)N[C@@H](CC(C)C)C(=O)NCC(N)=O)NC(=O)[C@H](CC(N)=O)NC(=O)[C@H](CCC(N)=O)NC1=O [Oxytocin, reference compound]	0.13 ± 0.017 h	>24 h	–	–
CC(C)C[C@H](NC(=O)[C@@H]1CSSC[C@@H]2NC(=O)[C@H](CC(C)C)NC(=O)[C@H](CCC(=O)O)NC(=O)[C@@H](NC(=O)[C@H](CCC(=O)O)NC(=O)[C@H](CC(=O)O)NC(=O)[C@@H](N)CC(N)=O)CSSC[C@H](NC(=O)[C@H](C)NC(=O)[C@H](C(C)C)NC(=O)[C@H](CC(N)=O)NC(=O)[C@H](C(C)C)NC2=O)C(=O)N[C@@H]([C@@H](C)O)C(=O)NCC(=O)N1)C(=O)O [Plecanatide, reference compound]	0.083 ± 0.017 h	>24 h	–	–
CC[C@H](C)[C@@H]1NC(=O)[C@@H]2CSSC[C@H](NC(=O)[C@H](CCCNC(=N)N)NC(=O)[C@@H]3CSSC[C@H](NC1=O)C(=O)N[C@@H]([C@@H](C)O)C(=O)N[C@@H](CCCNC(=N)N)C(=O)NCC(=O)N[C@@H](Cc1ccccc1)C(=O)N3)C(=O)N[C@@H](CC(C)C)C(=O)N[C@H]1CSSC[C@H](NC(=O)[C@H](C(C)C)NC(=O)CNC(=O)[C@H](CCCNC(=N)N)NC(=O)[C@H](CCCNC(=N)N)NC1=O)C(=O)N[C@@H](CCCNC(=N)N)C(=O)N2 [RTD-1] (HELM PEPTIDE1{G.F.C.R.C.L.C.R.R.G.V.C.R.C.I.C.T.R}$PEPTIDE1,PEPTIDE1,3:R3-16:R3|PEPTIDE1,PEPTIDE1,5:R3-14:R3|PEPTIDE1,PEPTIDE1,7:R3-12:R3|PEPTIDE1,PEPTIDE1,1:R1-18:R2$$$V2.0)	–	2.2 ± 0.3 h	0.05 ± 0.017 h	half-life (in vitro): < 3 min
NC(=O)CC[C@@H]1NC(=O)[C@H](Cc2ccccc2)NC(=O)[C@H](Cc2ccc(O)cc2)NC(=O)[C@@H](N)CSSC[C@@H](C(=O)N2CCC[C@H]2C(=O)N[C@@H](CCCN=C(N)N)C(=O)NCC(N)=O)NC(=O)[C@H](CC(N)=O)NC1=O [Vasopressin, reference compound]	–	>24 h	<0.05 h	–
